Reference: ChEMBL document CHEMBL5260859, “Discovery and structure-activity relationship study of 2-piperazinyl-benzothiazole derivatives as potent and selective PPARδ agonists” (Bioorg Med Chem, 2023)

Tests used:
[1] = target: T1, Peroxisome proliferator-activated receptor alpha (Mus musculus) (UniProt P23204); assay: Agonist activity at Gal4-fused mouse PPAR-alpha ligand binding domain expressed in CHO-K1 cells assessed as receptor transactivation incubated for 24 to 48 hrs by luciferase reporter gene assay relative to control; format: cell-based; details: time lower 24.0 hrs, time upper […]
T1 sequence (whole entry): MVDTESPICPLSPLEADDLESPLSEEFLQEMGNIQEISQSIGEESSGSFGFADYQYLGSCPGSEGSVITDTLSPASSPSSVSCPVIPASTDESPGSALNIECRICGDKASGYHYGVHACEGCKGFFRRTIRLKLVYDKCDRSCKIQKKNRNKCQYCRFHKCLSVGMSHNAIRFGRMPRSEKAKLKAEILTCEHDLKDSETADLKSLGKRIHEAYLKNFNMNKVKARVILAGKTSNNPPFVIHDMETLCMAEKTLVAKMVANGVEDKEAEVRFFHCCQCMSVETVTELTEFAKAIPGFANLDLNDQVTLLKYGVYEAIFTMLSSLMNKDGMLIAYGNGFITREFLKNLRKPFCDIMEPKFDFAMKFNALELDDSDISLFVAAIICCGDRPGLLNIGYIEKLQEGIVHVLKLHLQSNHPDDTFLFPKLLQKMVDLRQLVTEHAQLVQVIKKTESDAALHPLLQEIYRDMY

[2] = target: T2, Peroxisome proliferator-activated receptor alpha (Homo sapiens) (UniProt Q07869); assay: Agonist activity at Gal4-fused human PPAR-alpha ligand binding domain expressed in CHO-K1 cells assessed as receptor transactivation incubated for 24 to 48 hrs by luciferase reporter gene assay relative to control; format: cell-based; details: time lower 24.0 hrs, time upper […]
T2 sequence (whole entry): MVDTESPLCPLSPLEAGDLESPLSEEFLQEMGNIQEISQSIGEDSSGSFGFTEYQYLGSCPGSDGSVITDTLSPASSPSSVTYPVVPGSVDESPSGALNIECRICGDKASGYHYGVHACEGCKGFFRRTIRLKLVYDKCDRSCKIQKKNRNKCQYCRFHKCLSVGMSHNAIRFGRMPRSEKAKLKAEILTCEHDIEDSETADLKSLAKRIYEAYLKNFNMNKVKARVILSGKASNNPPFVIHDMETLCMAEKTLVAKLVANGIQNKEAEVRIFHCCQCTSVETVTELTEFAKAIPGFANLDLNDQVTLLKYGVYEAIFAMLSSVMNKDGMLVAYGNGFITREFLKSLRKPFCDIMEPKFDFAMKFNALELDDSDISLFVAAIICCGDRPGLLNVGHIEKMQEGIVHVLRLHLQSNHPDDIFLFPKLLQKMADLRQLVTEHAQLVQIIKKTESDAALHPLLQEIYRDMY

[3] = target: T3, Peroxisome proliferator-activated receptor delta (Mus musculus, UniProt P35396); assay: Agonist activity at Gal4-fused mouse PPAR-delta ligand binding domain expressed in CHO-K1 cells assessed as receptor transactivation incubated for 24 to 48 hrs by luciferase reporter gene assay; format: cell-based
T3 sequence (P35396 whole entry): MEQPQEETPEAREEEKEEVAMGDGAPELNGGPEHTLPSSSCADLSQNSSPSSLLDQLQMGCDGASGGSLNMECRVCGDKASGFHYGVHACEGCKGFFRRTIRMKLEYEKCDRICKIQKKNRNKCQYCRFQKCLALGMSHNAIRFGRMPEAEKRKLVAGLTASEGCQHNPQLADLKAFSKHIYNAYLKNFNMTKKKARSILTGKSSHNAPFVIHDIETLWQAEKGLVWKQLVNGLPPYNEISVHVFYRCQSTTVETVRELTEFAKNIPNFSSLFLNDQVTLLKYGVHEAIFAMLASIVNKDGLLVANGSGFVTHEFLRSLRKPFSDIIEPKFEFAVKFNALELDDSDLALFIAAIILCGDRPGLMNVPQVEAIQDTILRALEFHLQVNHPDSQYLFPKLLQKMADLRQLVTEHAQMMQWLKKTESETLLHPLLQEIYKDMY

[4] = target: T4, Peroxisome proliferator-activated receptor delta (Mus musculus) (UniProt P35396); assay: Agonist activity at Gal4-fused mouse PPAR-delta ligand binding domain expressed in CHO-K1 cells assessed as receptor transactivation incubated for 24 to 48 hrs by luciferase reporter gene assay relative to control; format: cell-based; details: time lower 24.0 hrs, time upper […]
T4 sequence (whole entry): T3 sequence (P35396 whole entry)

[5] = Oral bioavailability in rat at 1 mg/kg; format: ADME, organism-based; details: in vivo
[6] = target: T5, Peroxisome proliferator-activated receptor delta (Homo sapiens, UniProt Q03181); assay: Agonist activity at Gal4-fused human PPAR-delta ligand binding domain expressed in CHO-K1 cells assessed as receptor transactivation incubated for 24 to 48 hrs by luciferase reporter gene assay; format: cell-based
T5 sequence (Q03181 whole entry): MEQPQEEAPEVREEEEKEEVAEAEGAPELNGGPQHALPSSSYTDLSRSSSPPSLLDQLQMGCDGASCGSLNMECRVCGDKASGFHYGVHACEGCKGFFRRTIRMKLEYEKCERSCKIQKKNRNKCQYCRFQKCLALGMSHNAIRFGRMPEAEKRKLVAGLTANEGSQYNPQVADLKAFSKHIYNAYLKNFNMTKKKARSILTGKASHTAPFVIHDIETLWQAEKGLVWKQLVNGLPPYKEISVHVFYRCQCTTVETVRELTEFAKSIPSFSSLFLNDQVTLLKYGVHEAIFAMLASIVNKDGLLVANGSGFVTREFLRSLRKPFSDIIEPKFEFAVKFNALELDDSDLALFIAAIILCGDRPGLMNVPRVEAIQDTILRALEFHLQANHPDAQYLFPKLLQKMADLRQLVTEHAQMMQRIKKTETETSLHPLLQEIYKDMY

Mus musculus [7] = assay: Antihypercholesterolemic activity against hApoB100/hCETP-dTg hypercholesterolemic mouse model assessed as serum non-HDL-C level at 3 mg/kg, po administered once daily for 8 days; format: functional; details: time 8 day
[8] = Clearance in rat at 0.5 mg/kg, iv; format: ADME, organism-based; details: in vivo
[9] = AUC in rat at 0.5 mg/kg, iv; format: ADME, organism-based; set-up: dose 0.5 mg/kg, route iv; details: in vivo
[10] = target: T6, Peroxisome proliferator-activated receptor delta (Homo sapiens) (UniProt Q03181); assay: Agonist activity at Gal4-fused human PPAR-delta ligand binding domain expressed in CHO-K1 cells assessed as receptor transactivation incubated for 24 to 48 hrs by luciferase reporter gene assay relative to control; format: cell-based; details: time lower 24.0 hrs, time upper […]
T6 sequence (whole entry): T5 sequence (Q03181 whole entry)

[11] = Cmax in rat at 1 mg/kg, po; format: ADME, organism-based; set-up: dose 1 mg/kg, route po; details: in vivo
Mus musculus [12] = assay: Antihypercholesterolemic activity against hApoB100/hCETP-dTg hypercholesterolemic mouse model assessed as serum HDL-C level at 3 mg/kg, po administered once daily for 8 days; format: functional; details: time 8 day
Mus musculus [13] = assay: Antihypercholesterolemic activity against hApoB100/hCETP-dTg hypercholesterolemic mouse model assessed as serum total cholesterol level at 3 mg/kg, po administered once daily for 8 days; format: functional; details: time 8 day
[14] = Half life in rat at 0.5 mg/kg, iv; format: ADME, organism-based; details: in vivo
[15] = AUC in rat at 1 mg/kg, po; format: ADME, organism-based; set-up: dose 1 mg/kg, route po; details: in vivo
[16] = target: T7, Peroxisome proliferator-activated receptor gamma (Mus musculus, UniProt P37238); assay: Agonist activity at Gal4-fused mouse PPAR-gamma ligand binding domain expressed in CHO-K1 cells assessed as receptor transactivation incubated for 24 to 48 hrs by luciferase reporter gene assay; format: cell-based
T7 sequence (P37238 whole entry): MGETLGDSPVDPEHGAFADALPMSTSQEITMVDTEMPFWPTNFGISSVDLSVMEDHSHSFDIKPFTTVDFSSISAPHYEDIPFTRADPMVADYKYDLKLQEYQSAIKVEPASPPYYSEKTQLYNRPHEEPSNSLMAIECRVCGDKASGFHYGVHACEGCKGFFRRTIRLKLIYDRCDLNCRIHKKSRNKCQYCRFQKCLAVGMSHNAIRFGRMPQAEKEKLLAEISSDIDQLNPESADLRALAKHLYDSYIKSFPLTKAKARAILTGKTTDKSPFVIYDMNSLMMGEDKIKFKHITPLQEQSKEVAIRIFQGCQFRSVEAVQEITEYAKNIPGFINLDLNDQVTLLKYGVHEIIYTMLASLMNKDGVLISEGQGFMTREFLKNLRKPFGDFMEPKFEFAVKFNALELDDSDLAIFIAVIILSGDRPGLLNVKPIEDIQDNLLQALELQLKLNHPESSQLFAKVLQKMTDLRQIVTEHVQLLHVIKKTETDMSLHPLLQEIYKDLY

[17] = target: T8, Peroxisome proliferator-activated receptor alpha (Mus musculus, UniProt P23204); assay: Agonist activity at Gal4-fused mouse PPAR-alpha ligand binding domain expressed in CHO-K1 cells assessed as receptor transactivation incubated for 24 to 48 hrs by luciferase reporter gene assay; format: cell-based
T8 sequence (P23204 whole entry): T1 sequence (whole entry)

Mus musculus [18] = organism: Mus musculus; assay: Selectivity ratio of EC50 for agonist activity at Gal4-fused mouse PPAR-alpha ligand binding domain expressed in CHO-K1 cells to EC50 for agonist activity at Gal4-fused mouse PPAR-delta ligand binding domain expressed in CHO-K1 cells; format: cell-based
Homo sapiens = organism: Homo sapiens; assay: Selectivity ratio of EC50 for agonist activity at Gal4-fused human PPAR-alpha ligand binding domain expressed in CHO-K1 cells to EC50 for agonist activity at Gal4-fused human PPAR-delta ligand binding domain expressed in CHO-K1 cells; format: cell-based
Mus musculus [19] = organism: Mus musculus; assay: Selectivity ratio of EC50 for agonist activity at Gal4-fused mouse PPAR-gamma ligand binding domain expressed in CHO-K1 cells to EC50 for agonist activity at Gal4-fused mouse PPAR-delta ligand binding domain expressed in CHO-K1 cells; format: cell-based

SMILES | Emax [1] | Emax [2] | EC50 [3] | Emax [4] | bioavailability [5] | EC50 [6] | Activity (Mus musculus [7]) | clearance [8] | AUC [9] | Emax [10] | Cmax [11] | Activity (Mus musculus [12]) | Activity (Mus musculus [13]) | half-life [14] | AUC [15] | EC50 [16] | EC50 [17] | Ratio EC50 (Mus musculus [18]) | Ratio EC50 (Homo sapiens) | Ratio EC50 (Mus musculus [19])
Cc1cc(CC(=O)O)cc(CN2CCN(c3nc4ccc(C(F)(F)F)cc4s3)[C@H](CC(C)C)C2)c1 | 1.4% | 1.6% | 6.9 nM | 24.8% | 62.9% | 4.3 nM | 75% | 1.47 mL/min/kg | 5680 ng·h/mL | 17.5% | 895 ng/mL | 145% | 83% | 6.7 h | 7140 ng·h/mL | – | – | – | – | –
C[C@H]1CN(c2nc3ccc(C(F)(F)F)cc3s2)CCN1CCOc1cc(CC(=O)O)ccc1Cl | 7.2% | – | 6.9 nM | 34% | 26.4% | – | 80% | 45.6 mL/min/kg | 190 ng·h/mL | – | 11 ng/mL | 113% | 76% | 1.4 h | 101 ng·h/mL | 240 nM | 2700 nM | – | – | –
Cc1ccc(CC(=O)O)cc1OCCC1CCN(c2nc3ccc(Cl)cc3s2)CC1 | 15.5% | 8% | – | 20% | – | – | – | – | – | 16.2% | – | – | – | – | – | – | 1130 nM | 16 | 39 | 10
CC[C@H]1CN(c2nc3ccc(C(F)(F)F)cc3s2)CCN1CCOc1cc(CC(=O)O)ccc1Cl | 8% | – | 6.1 nM | 31.7% | 18.9% | – | 82% | 21.5 mL/min/kg | 399 ng·h/mL | – | 10 ng/mL | 156% | 94% | 2.7 h | 151 ng·h/mL | 240 nM | 2500 nM | – | – | –
Cc1cc(CC(=O)O)cc(CN2CCN(c3nc4ccc(C(F)(F)F)cc4s3)[C@@H](C(C)C)C2)c1 | 10.3% | – | 12 nM | 25% | 85.8% | 4.1 nM | 56% | 0.31 mL/min/kg | 26700 ng·h/mL | 18.6% | 2050 ng/mL | 188% | 72% | 9.5 h | 45900 ng·h/mL | – | 2000 nM | – | – | –
